This is an account of results in patent US20090280153A1, “electrical devices, anti-scarring agents, and therapeutic compositions” (Angiotech International AG, priority 2005, published 2009).

The first assay relates to fibroblasts and/or smooth muscle cells, macrophages. In words: assays described herein (in vitro screening assays for anti-fibrosis agents). Type of assay: cell-based. The note with it: approximately; high potency (1-100) or mid-potency (100-500) agents; read-out: IC50 range in the assays described herein. The text has this:
Agents which may inhibit fibrosis or gliosis may be readily identified based upon in vitro and in vivo (animal) models, such as those provided in Examples 39-52. Depending on their mechanisms, various agents may be effective in some, but not all screening assays for anti-fibrosis or anti-gliosis agents, and different agents may be effective in different screening assays. Agents which inhibit fibrosis can be identified through in vivo models including inhibition of intimal hyperplasia development in the rat balloon carotid artery model (Examples 44 and 61). The assays set forth in Examples 43 and 51 may be used to determine whether an agent is able to inhibit cell proliferation in fibroblasts and/or smooth muscle cells. In one aspect of the invention, the agent has an IC50 for inhibition of cell proliferation within a range of about 10^−6 to about 10^−10 M. In certain embodiments, the agent may have an IC50 for inhibition of cell proliferation of less than about 10,000 nM; or less than about 1000 nM; or less than about 100 nM. The assay set forth in Example 47 may be used to determine whether an agent may inhibit migration of fibroblasts and/or smooth muscle cells. In one aspect of the invention, the agent has an IC50 for inhibition of cell migration within a range of about 10^−6 to about 10^−9M. In certain embodiments, the agent may have an IC50 for inhibition of fibroblast or smooth muscle cell migration of less than about 10,000 nM; or less than about 1000 nM; or less than about 100 nM. Assays set forth herein may be used to determine whether an agent is able to inhibit inflammatory processes, including nitric oxide production in macrophages (Example 39), and/or TNF-alpha production by macrophages (Example 40), and/or IL-1 beta production by macrophages (Example 48), and/or IL-8 production by macrophages (Example 49), and/or inhibition of MCP-1 by macrophages (Example 50). In one aspect of the invention, the agent has an IC50 for inhibition of any one of these inflammatory processes within a range of about 10^−6 to about 10^−10M. In certain embodiments, the agent may have an IC50 for any one of these inflammatory processes of less than about 10,000 nM; or less than about 1000 nM; or less than about 100 nM. The assay set forth in Example 45 may be used to determine whether an agent is able to inhibit MMP production. In one aspect of the invention, the agent has an IC50 for inhibition of MMP production within a range of about 10^−4 to about 10^−8M. In certain embodiments, the agent may have an IC50 for inhibition of MMP production of less than about 10,000 nM; or less than about 1000 nM; or less than about 100 nM. The assay set forth in Example 46 (also known as the CAM assay) may be used to determine whether an agent is able to inhibit angiogenesis. In one aspect of the invention, the agent has an IC50 for inhibition of angiogenesis within a range of about 10^−6 to about 10^−10M. In certain embodiments, the agent may have an IC50 for inhibition of angiogenesis of less than about 10,000 nM; or less than about 1000 nM; or less than about 100 nM. The assay set forth in Example 52 may be used to determine whether an agent is able to inhibit MMP-1. In one aspect of the invention, the agent has an IC50 for inhibition of MMP-1 within a range of about 10^−6 to about 10^−10M. In certain embodiments, the agent may have an IC50 for inhibition of MMP-1 of less than about 10,000 nM; or less than about 1000 nM; or less than about 100 nM. Agents which reduce the formation of surgical adhesions may be identified through in vivo models including the rabbit surgical adhesions model (Example 42) and the rat caecal sidewall model (Example 41). […]
By IC50 is commonly meant the concentration that gives 50% inhibition. Turning to `COCc1c(C(C)C)nc(C(C)C)c(/C=C/[C@@H](O)C[C@@H](O)CC(=O)O)c1-c1ccc(F)cc1` [cerivastatin], the half-inhibitory concentration (IC50) lay in the range of 1 to 100 nM.
Same read-out and setting: the figure for `Nc1nc(Cl)nc2c1ncn2[C@H]1C[C@H](O)[C@@H](CO)O1` [cladribine] is 100 to 500 nM; for `CCC(=O)O[C@]1(C(=O)CCl)[C@@H](C)C[C@H]2[C@@H]3CCC4=CC(=O)C=C[C@]4(C)[C@@]3(F)[C@@H](O)C[C@@]21C` [clobetasol propionate] it is 1 to 100 nM; for `COC(=O)C[C@](O)(CCCC(C)(C)O)C(=O)O[C@@H]1C(OC)=C[C@]23CCCN2CCc2cc4c(cc2[C@H]13)OCO4` [homoharringtonine] it is 1 to 100 nM.
Same read-out and setting: the figure for `CC1=C(/C=C/C(C)=C/C=C/C(C)=C\C(=O)O)C(C)(C)CCC1` [isotretinoin] is 1 to 100 nM.
Take `O=C1C=CC(=O)c2c(O)cccc21` [juglone]: the 50% inhibitory concentration (IC50) lay in the range of 100 to 500 nM.
On the same count and under the same terms, with `CCOC(=O)O[C@]1(C(=O)OCCl)CC[C@H]2[C@@H]3CCC4=CC(=O)C=C[C@]4(C)[C@H]3[C@@H](O)C[C@@]21C` [loteprednol etabonate] the figure was 100 to 500 nM.
Take `O=C[C@@H](O)[C@@H](O)[C@H](O)[C@H](O)COP(=O)(O)O` [mannose-6-phosphate]: the IC50 is 100 to 500 nM.
On to `Cc1ccc(=O)n(-c2ccccc2)c1` [pirfenidone], for which the IC50 is 1 to 100 nM.
The same measure, in the same setting: with `C[C@]12C=CC(=O)C=C1CC[C@@H]1[C@@H]2[C@@H](O)C[C@@]2(C)[C@H]1CC[C@]2(O)C(=O)CO` [prednisolone] the figure was 100 to 500 nM; with `COc1ccc(C[C@H](N)C(=O)N[C@H]2[C@@H](O)[C@H](n3cnc4c(N(C)C)ncnc43)O[C@@H]2CO)cc1` [puromycin], 100 to 500 nM; with `C[C@@H]1C[C@H]2O[C@@H]2/C=C\C=C\C(=O)Cc2c(Cl)c(O)cc(O)c2C(=O)O1` [radicicol], 1 to 100 nM.
Same read-out and setting: with `C=CC[C@@H]1/C=C(\C)C[C@H](C)C[C@H](OC)[C@H]2O[C@@](O)(C(=O)C(=O)N3CCCC[C@H]3C(=O)O[C@H](/C(C)=C/[C@@H]3CC[C@@H](O)[C@H](OC)C3)[C@H](C)[C@@H](O)CC1=O)[C@H](C)C[C@@H]2OC` [tacrolimus] the figure was 1 to 100 nM; with `C/C=C(/C)C(=O)O[C@H]1C(C)=C2[C@H]([C@@H]1OC(=O)CCCCCCC)[C@@](C)(OC(C)=O)C[C@H](OC(=O)CCC)[C@@]1(O)[C@H]2OC(=O)[C@@]1(C)O` [thapsigargin], 1 to 100 nM; with `CCC1=C[C@@H]2CN(C1)Cc1c([nH]c3ccccc13)[C@@](C(=O)OC)(c1cc3c(cc1OC)N(C)[C@H]1[C@@](O)(C(=O)OC)[C@H](OC(C)=O)[C@]4(CC)C=CCN5CC[C@]31[C@@H]54)C2` [vinorelbine], 1 to 100 nM.

Still in this assay, the particulars now being: approximately; low potency agents; read-out: IC50 range in the assays described herein.
Turning to `Nc1ncn([C@@H]2O[C@H](CO)[C@@H](O)[C@H]2O)c(=O)n1` [5-azacytidine], the IC50 lay in the range of 500 to 1000 nM.
Take `CN(C)C[C@@H]1CCn2cc(c3ccccc32)C2=C(C(=O)NC2=O)c2cn(c3ccccc23)CCO1` [Ly333531 (ruboxistaurin), ruboxistaurin]: the IC50 was in the range of 500 to 1000 nM.
For `CCC(C)(C)C(=O)O[C@H]1C[C@@H](C)C=C2C=C[C@H](C)[C@H](CC[C@@H]3C[C@@H](O)CC(=O)O3)[C@H]21` [simvastatin], the IC50 was 500 to 1000 nM.

The next assay relates to AP-1. Nature of the assay: IL-1 induced AP-1 binding activity in chondrocyte lysates (FIG. 4C). Type of assay: cell-based. To be noted: chondrocytes pretreated with paclitaxel.
`CC(=O)O[C@H]1C(=O)[C@@]2(C)[C@H]([C@H](OC(=O)c3ccccc3)[C@]3(O)C[C@H](OC(=O)[C@H](O)[C@@H](NC(=O)c4ccccc4)c4ccccc4)C(C)=C1C3(C)C)[C@]1(OC(C)=O)CO[C@@H]1C[C@@H]2O` [paclitaxel]: the “IL-1 induced binding activity in lysates from chondrocytes” value is “decreased”.

The test system of another assay is collagenase and stromelysin. In words: IL-1 induced collagenase and stromelysin expression in chondrocytes (FIGS. 4D, 5A-H). The assay is classed as cell-based. The note with it: pretreatment with paclitaxel; FIG. 4D.
`CC(=O)O[C@H]1C(=O)[C@@]2(C)[C@H]([C@H](OC(=O)c3ccccc3)[C@]3(O)C[C@H](OC(=O)[C@H](O)[C@@H](NC(=O)c4ccccc4)c4ccccc4)C(C)=C1C3(C)C)[C@]1(OC(C)=O)CO[C@@H]1C[C@@H]2O` [paclitaxel]: the “IL-1 induction of collagenase and stromelysin RNA levels in chondrocytes” value is reported as “inhibited”.

The test system of the next assay is bacteria and fungi.
Assay: not given
The note with it: surface drug concentration is to exceed this value; cited from earlier work.
For the molecule `O=c1[nH]cc(F)c(=O)[nH]1` [5-fluorouracil, 5-Fluorouracil], the “concentration known to be lethal to bacteria and fungi” value (“concentration known to be lethal” below) is given as 10^−4 M.
For `COc1cccc2c1C(=O)c1c(O)c3c(c(O)c1C2=O)C[C@@](O)(C(=O)CO)C[C@@H]3O[C@H]1C[C@H](N)[C@H](O)[C@H](C)O1` [doxorubicin, Doxorubicin], the “concentration known to be lethal” value is reported as 10^−4 M.
Turning to `COc1cc([C@@H]2c3cc4c(cc3[C@@H](O[C@@H]3O[C@@H]5CO[C@@H](C)O[C@H]5[C@H](O)[C@H]3O)[C@H]3COC(=O)[C@H]23)OCO4)cc(OC)c1O` [etoposide, Etoposide], the “concentration known to be lethal” value was 10^−5 M.
Regarding `O=C1c2c(O)ccc(O)c2C(=O)c2c(NCCNCCO)ccc(NCCNCCO)c21` [mitoxantrone], the “concentration known to be lethal” value was 10^−5 M.
